In the supplement of paper PMC10307832:

Assays:
Experiment in all cases: relative viability (nuclei count vs DMSO), 5 days (fraction); higher = more cells survive
[1] = compound: NCC(=O)Nc1ccc(-n2nc(C(F)(F)F)cc2-c2ccc3c(ccc4ccccc43)c2)cc1 + CC(=O)c1c(C)c2cnc(Nc3ccc(N4CCNCC4)cn3)nc2n(C2CCCC2)c1=O [Palbociclib] (partner 0.5 µM)
Procedure, shortened: (§1)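 Lung cancer cell lines, seeded in 1536-well plates, were treated the following day by pin tool with a single drug or with five library-drug doses (not always all listed) in √10 steps on top of a fixed anchor-drug dose. Cells were fixed and nuclei stained in one step after 5 days, and nuclei were counted. Relative viability is the nuclei count for treated wells divided by that for vehicle wells, reported as medians of duplicate plates.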

[2] = compound: C1CSC2=C(C(=O)N1)SC3=C2C=C(C=C3)O [kb NB 142-70] + CC(C)C[C@H](NC(=O)[C@H](Cc1ccccc1)NC(=O)c1cnccn1)B(O)O [Bortezomib] (partner 0.002 µM)
Procedure, shortened: as §1

[3] = compound: C1CSC2=C(C(=O)N1)SC3=C2C=C(C=C3)O [kb NB 142-70] + CCNC(=O)c1noc(-c2cc(C(C)C)c(O)cc2O)c1-c1ccc(CN2CCOCC2)cc1 [Luminespib] (partner 0.01 µM)
Procedure, shortened: as §1

[4] = compound: C1CSC2=C(C(=O)N1)SC3=C2C=C(C=C3)O [kb NB 142-70] + O=C(CCCCCCC(=O)Nc1ccccc1)NO [Vorinostat] (partner 1 µM)
Procedure, shortened: as §1

kb NB 142-70 + AZD7762 = compound: C1CSC2=C(C(=O)N1)SC3=C2C=C(C=C3)O [kb NB 142-70] + NC(=O)Nc1cc(-c2cccc(F)c2)sc1C(=O)N[C@H]1CCCNC1 [AZD7762] (partner 0.2 µM)
Procedure, shortened: as §1

Cell Line | relative viability ([1]; first compound 0.02 µM) | relative viability ([1]; first compound 0.06325 µM) | relative viability ([1]; first compound 0.2 µM) | relative viability ([1]; first compound 0.6325 µM) | relative viability ([1]; first compound 2 µM) | relative viability ([2]; first compound 0.1 µM) | relative viability ([2]; first compound 1 µM) | relative viability ([2]; first compound 3.162 µM) | relative viability ([3]; first compound 0.1 µM) | relative viability ([3]; first compound 1 µM) | relative viability ([3]; first compound 3.162 µM) | relative viability ([4]; first compound 0.1 µM) | relative viability ([4]; first compound 1 µM) | relative viability ([4]; first compound 3.162 µM) | relative viability (kb NB 142-70 + AZD7762; first compound 0.1 µM) | relative viability (kb NB 142-70 + AZD7762; first compound 1 µM) | relative viability (kb NB 142-70 + AZD7762; first compound 3.162 µM)
A-427 | 0.502 | 0.567 | 0.527 | 0.526 | 0.534 | 1.01 | 1.05 | 1.01 | 0.845 | 1.12 | 0.584 | 0.864 | 0.969 | 0.932 | 0.783 | 0.93 | 1.08
LCLC-97TM1 | 0.249 | 0.205 | 0.22 | 0.233 | 0.199 | 0.853 | 0.563 | 0.123 | 0.72 | 0.76 | 0.692 | 0.82 | 0.773 | 0.515 | 0.346 | 0.231 | 0.563
LCLC-103H | 0.41 | 0.503 | 0.483 | 0.413 | 0.504 | 1.17 | 1.09 | 1.07 | 0.956 | 0.997 | 0.903 | 0.856 | 0.873 | 0.877 | 0.766 | 0.782 | 0.894
PC-3 [JPC-3] | 0.536 | 0.561 | 0.578 | 0.524 | 0.571 | 0.8 | 0.83 | 0.898 | 0.709 | 0.817 | 0.627 | 0.814 | 0.846 | 0.458 | 0.832 | 0.807 | 0.773
BEN | 0.441 | 0.475 | 0.473 | 0.49 | 0.465 | 0.942 | 0.669 | 0.418 | 0.412 | 1.13 | 0.281 | 0.553 | 0.585 | 0.573 | 0.727 | 0.623 | 0.531
NCI-H1666 | 0.658 | 0.677 | 0.69 | 0.616 | 0.624 | 0.903 | 0.713 | 0.36 | 0.898 | 0.985 | 0.81 | 1.1 | 1.05 | 0.976 | 0.879 | 0.714 | 0.89
LC-2-ad | 0.507 | 0.462 | 0.463 | 0.469 | 0.473 | 1.12 | 1.03 | 0.916 | 0.997 | 1.04 | 0.699 | 0.726 | 0.698 | 0.71 | 0.826 | 0.825 | 0.888
ChaGo-K-1 | 0.919 | 0.929 | 0.933 | 0.973 | 0.917 | 1.06 | 1.1 | 0.951 | 0.664 | 0.638 | 0.448 | 0.815 | 0.813 | 0.7 | 0.896 | 0.873 | 0.888
NCI-H1975 | 0.657 | 0.61 | 0.615 | 0.485 | 0.586 | 0.33 | 0.283 | 0.153 | 0.286 | 0.197 | 0.106 | 0.708 | 0.816 | 0.554 | 0.652 | 0.748 | 0.7
NCI-H1993 | 0.658 | 0.599 | 0.808 | 0.696 | 0.706 | 1.14 | 1.07 | 1.17 | 1.03 | 0.858 | 0.673 | 0.921 | 0.844 | 0.727 | 0.73 | 0.611 | 1.03
RERF-LC-KJ | 0.936 | 1.2 | 1.03 | 1.06 | 1.02 | 1.18 | 1.29 | 0.946 | 1.33 | 1.27 | 0.936 | 0.729 | 0.754 | 0.677 | 1.02 | 0.985 | 1.04
NCI-H23 | 0.493 | 0.548 | 0.535 | 0.507 | 0.553 | 1.1 | 0.896 | 0.516 | 0.231 | 0.207 | 0.201 | 0.703 | 0.583 | 0.298 | 0.376 | 0.291 | 0.275
EMC-BAC-2 | 0.514 | 0.513 | 0.537 | 0.518 | 0.532 | 1.08 | 1.07 | 0.812 | 1.25 | 1.17 | 0.972 | 0.556 | 0.472 | 0.16 | 1.13 | 1.15 | 0.731
NCI-H2405 | 0.501 | 0.519 | 0.556 | 0.515 | 0.517 | 0.969 | 0.993 | 1.01 | 0.733 | 0.728 | 0.523 | 1.04 | 1.03 | 0.587 | 0.792 | 0.769 | 0.609
EPLC-272H | 0.332 | 0.306 | 0.36 | 0.335 | 0.326 | 0.926 | 1.06 | 0.72 | 0.361 | 0.216 | 0.157 | 0.597 | 0.273 | 0.155 | 0.265 | 0.34 | 0.284
NCI-H1915 | 0.535 | 0.509 | 0.517 | 0.507 | 0.541 | 0.998 | 1 | 0.85 | 0.797 | 0.897 | 0.489 | 0.559 | 0.565 | 0.45 | 0.679 | 0.821 | 0.851
NCI-H322M | 0.51 | 0.502 | 0.388 | 0.505 | 0.493 | 1.2 | 1.25 | 1.3 | 0.767 | 0.947 | 0.693 | 0.942 | 1.06 | 0.926 | 0.634 | 0.707 | 0.846

Cell Line | relative viability ([1]; first compound 0.02 µM) | relative viability ([1]; first compound 0.06325 µM) | relative viability ([1]; first compound 0.2 µM) | relative viability ([1]; first compound 0.6325 µM) | relative viability ([1]; first compound 2 µM) | relative viability ([2]; first compound 0.1 µM) | relative viability ([2]; first compound 1 µM) | relative viability ([2]; first compound 3.162 µM) | relative viability ([3]; first compound 0.1 µM) | relative viability ([3]; first compound 1 µM) | relative viability ([3]; first compound 3.162 µM) | relative viability ([4]; first compound 0.1 µM) | relative viability ([4]; first compound 1 µM) | relative viability ([4]; first compound 3.162 µM) | relative viability (kb NB 142-70 + AZD7762; first compound 0.1 µM) | relative viability (kb NB 142-70 + AZD7762; first compound 1 µM) | relative viability (kb NB 142-70 + AZD7762; first compound 3.162 µM)
NCI-H647 | 0.431 | 0.385 | 0.564 | 0.294 | 0.402 | 0.987 | 0.773 | 1.06 | 0.177 | 0.184 | 0.11 | 0.716 | 0.597 | 0.492 | 0.412 | 0.516 | 0.537
NCI-H2085 | 0.533 | 0.477 | 0.474 | 0.469 | 0.473 | 1 | 1 | 0.709 | 0.383 | 0.358 | 0.339 | 0.772 | 0.857 | 0.483 | 1.02 | 1.08 | 0.77
NCI-H727 | 0.674 | 0.795 | 0.56 | 0.72 | 0.682 | 0.897 | 1.1 | 1.02 | 0.226 | 0.346 | 0.42 | 1.35 | 1.18 | 1.24 | 0.531 | 0.688 | 0.769
NCI-H441 | 0.242 | 0.258 | 0.265 | 0.228 | 0.25 | 0.323 | 0.793 | 0.307 | 0.397 | 0.353 | 0.244 | 0.89 | 0.844 | 0.644 | 1.06 | 1.23 | 0.863
LOU-NH91 | 0.647 | 0.519 | 0.528 | 0.541 | 0.582 | 0.467 | 0.431 | 0.353 | 0.312 | 0.316 | 0.286 | 0.915 | 0.913 | 0.601 | 0.767 | 0.762 | 0.637
NCI-H3122 | 0.197 | 0.182 | 0.179 | 0.206 | 0.155 | 1.09 | 1.06 | 1.03 | 0.0874 | 0.075 | 0.0881 | 0.908 | 1.08 | 0.887 | 1 | 1.03 | 1.02
NCI-H460 | 0.143 | 0.2 | 0.251 | 0.171 | 0.2 | 1.05 | 1.08 | 0.608 | 0.0325 | 0.0315 | 0.0216 | 0.733 | 0.755 | 0.436 | 0.618 | 0.904 | 0.953
NCI-H650 | 0.377 | 0.315 | 0.329 | 0.358 | 0.296 | 0.845 | 0.719 | 0.561 | 0.76 | 0.777 | 0.499 | 0.514 | 0.585 | 0.363 | 0.999 | 1.09 | 0.774
NCI-H1734 | 0.361 | 0.343 | 0.345 | 0.333 | 0.356 | 0.889 | 0.867 | 0.49 | 0.185 | 0.205 | 0.171 | 0.829 | 0.724 | 0.538 | 0.585 | 0.589 | 0.507
LXF-289 | 0.591 | 0.599 | 0.59 | 0.588 | 0.628 | 1.02 | 0.942 | 0.895 | 0.78 | 0.621 | 0.49 | 0.713 | 0.711 | 0.51 | 1.11 | 1.1 | 1.27
H3255 | 0.35 | 0.313 | 0.314 | 0.322 | 0.304 | 0.822 | 0.7 | 0.822 | 0.881 | 0.845 | 1.12 | 0.973 | 0.864 | 0.842 | 0.86 | 0.925 | 0.999
201T | 0.342 | 0.374 | 0.366 | 0.363 | 0.351 | 1.09 | 1.17 | 1.11 | 1.04 | 1.03 | 1.08 | 0.943 | 1.02 | 1.06 | 0.603 | 0.723 | 0.676
NCI-H2126 | 0.369 | 0.334 | 0.369 | 0.385 | 0.327 | 1.11 | 1.14 | 1.12 | 0.797 | 0.878 | 0.879 | 0.755 | 0.796 | 0.805 | 0.925 | 1.03 | 1.08
HOP-62 | 0.453 | 0.384 | 0.42 | 0.452 | 0.545 | 0.919 | 1 | 0.569 | 0.971 | 0.884 | 1.06 | 0.69 | 0.713 | 0.579 | 0.691 | 1.1 | 0.764
CAL-12T | 0.527 | 0.481 | 0.462 | 0.588 | 0.423 | 1.01 | 1.04 | 0.819 | 0.56 | 0.611 | 0.25 | 0.767 | 0.663 | 0.564 | 0.548 | 0.718 | 0.704
NCI-H1755 | 0.48 | 0.444 | 0.448 | 0.471 | 0.434 | 1.02 | 0.98 | 1 | 0.49 | 0.45 | 0.557 | 0.709 | 0.801 | 0.674 | 0.436 | 0.447 | 0.431
